Data on 7 compounds can be found in patent US4894219A, “Beta-agonist carbostyril derivatives, assay method and pharmacological composition” (University of Florida, priority 1988, dated 1990).

A word on the Kd: it is the free concentration of one partner at which half of the binding sites on the other are occupied at equilibrium, for simple one-to-one binding.

Like-named read-outs stand apart in the source and are kept apart here.

For data set [1], the system named is adenylate cyclase. Description: Stimulation of adenylate cyclase activity in rat reticulocyte membranes. Format: biochemical. To be noted: for Intrinsic Activity, adenylate cyclase: as compared to (-)isoproterenol which was set to 1.0, 10 min; for intrinsic activity (efficacy) in words: compared with (-)isoproterenol; for EC50: rat reticulocyte membranes, mean ±SE, n = 3-6, read-out: EC50 (concentration that produced half-maximal enzyme activation), adenylate cyclase. As to the method:
Biochemical Methods. Adenylate Cyclase Activity. Rat reticulocytes were induced and membranes prepared as described by Baker et al, J. Biol. Chem., Vol. 260, p. […] These are the basal conditions. […] At the end of the incubation, 0.3 ml of 10 mM Tris.HCl buffer at pH 7.0 containing 5 mM EDTA was added to each tube and the tubes were placed in a boiling water bath for 5 min. After cooling to room temperature, the tubes were centrifuged for 5 min at 10000 g and the supernatant saved. The cAMP content of the supernatant was determined by a competitive protein binding assay. The amount of cAMP present was calculated from a standard curve determined with unlabeled cAMP. […] Basal and GTP-stimulated activity values were substracted from the values obtained in the presence of ligands and the concentration of ligands that produced half-maximal activity (EC50) were determined by using a dose-effect analysis with an Apple IIe computer. Membrane protein content was determined by the Lowry method with bovine serum albumin as standard.

Data set [2] has as its target T1, beta-adrenergic receptor (Rattus norvegicus, UniProt P10608). Description: [^125 I]iodocyanopindolol (CYP) competition binding to the beta-adrenergic receptor in rat reticulocyte membranes. As to the method: β-Adrenergic Receptor Binding. […] At the end of the incubation, the suspensions were diluted with 4 ml of ice-cold incubation buffer and poured onto Whatman GF/B glass fiber filters under reduced pressure. Each filter was washed with a further 8 ml of ice-cold buffer, placed in a scintillation vial, and counted. Specific binding to the receptor was calculated as the difference between total binding determined in the absence of alprenolol and the nonspecific binding determined in the presence of alprenolol. […] All data was statistically analyzed by using a one-way analysis of variance (ANOVA).

The test system of data set [3] is adenylate cyclase. Briefly: Time course of cAMP production in rat reticulocytes with propranolol addition (FIG. 3). Format: biochemical. To be noted: for irreversible binding and response at the beta-adrenergic receptor: conclusion from FIG. 3 and binding data; for cAMP production after propranolol added during incubation: propranolol added after 9 min ((-)isoproterenol) or 7 min (structure 13); for cAMP production, linearity with time: without propranolol. As to the method:
Biochemical Methods. Adenylate Cyclase Activity. Rat reticulocytes were induced and membranes prepared as described by Baker et al, J. Biol. Chem., Vol. 260, p. 15820 (1985). […] These are the basal conditions. When stimulation of activity was measured, the assay also contained 0.5 mM GTP and varying concentrations of (-)-isoproterenol or the carbostyril derivatives. At the end of the incubation, 0.3 ml of 10 mM Tris.HCl buffer at pH 7.0 containing 5 mM EDTA was added to each tube and the tubes were placed in a boiling water bath for 5 min. After cooling to room temperature, the tubes were centrifuged for 5 min at 10000 g and the supernatant saved. The cAMP content of the supernatant was determined by a competitive protein binding assay. The amount of cAMP present was calculated from a standard curve determined with unlabeled cAMP. Enzyme activity was linear with time and protein through 10 min and 0.1 mg, respectively. Basal and GTP-stimulated activity values were substracted from the values obtained in the presence of ligands and the concentration of ligands that produced half-maximal activity (EC50) were determined by using a dose-effect analysis with an Apple IIe computer. Membrane protein content was determined by the Lowry method with bovine serum albumin as standard.

Data set [4] deals with beta-adrenergic receptors. Briefly: Loss of beta-adrenergic receptors in rat tissues after i.p. injection. Format: in vivo. To be noted: for Specific Ligand Binding / % reduction of receptors from controls: 3 hr; for beta-2-receptor selectivity in vivo: receptor loss in rat tissues. How it is done:
Rats were injected i.p. with either 2 or 5 mg/kg of structure (13) and 3 hr. later, the tissues were removed and assayed for the beta-adrenergic receptor content.

The next data set has as its system ornithine decarboxylase. Description: Induction of ornithine decarboxylase activity in the rat lung. It is filed as in vivo. To be noted: for Fold increase of ornithine decarboxylase activity over the basal level / Ornithine decarboxylase activity: rat lung.
Data set [5] has as its target T1, beta-adrenergic receptor. Description: Washout experiment: irreversible binding after membrane pretreatment with compound 13. Further details: membranes prepared from rat reticulocytes; from tissue; host or cells: rat reticulocytes (blood cells), membranes; endogenous receptor. How it is done: In the pretreatment experiments, reticulocyte membrane protein (3 mg/ml) was incubated in 50 mM Tris·HCl buffer at pH 7.4, containing 5 mM MgCl2 without and with 20 nM compound 13 for 30 min at 32° C. A parallel incubation was also performed containing 20 nM compound 13 plus 10 μM nadolol. At the end of the incubation the tubes were filled (30 ml) with ice-cold incubation buffer and centrifuged at 48000 g for 15 min. The pellets were washed three more times by centrifugation and resuspension and the final pellets were resuspended in 1 ml of incubation buffer for assay. The membrane content of β-adrenergic receptors was determined with (-)-^125 I]-iodocyanopindolol (10-100 pM) as described above. The binding maximums and dissociation constants (KD) were determined from linear regression analysis of Scatchard plots.
Irreversible binding of compound (13) to the reticulocyte β-adrenergicreceptor was indicated by washout experiments.

In the next data set the test system is beta-2. To be noted: Yoshizaki et al, J. Med. Chem. 1977; cited from earlier work.
The mark [6] stands for this setting: listed as structure wherein X is NHCOCH2 Br.
[7] abbreviates: 0.1 mg/kg i.p., 3 hours, basal 1.9 + 0.4.
The mark [8] stands for this setting: 0.1 mg/kg plus propranolol (5 mg/kg, 30 min before).

T1 sequence (P10608 whole entry): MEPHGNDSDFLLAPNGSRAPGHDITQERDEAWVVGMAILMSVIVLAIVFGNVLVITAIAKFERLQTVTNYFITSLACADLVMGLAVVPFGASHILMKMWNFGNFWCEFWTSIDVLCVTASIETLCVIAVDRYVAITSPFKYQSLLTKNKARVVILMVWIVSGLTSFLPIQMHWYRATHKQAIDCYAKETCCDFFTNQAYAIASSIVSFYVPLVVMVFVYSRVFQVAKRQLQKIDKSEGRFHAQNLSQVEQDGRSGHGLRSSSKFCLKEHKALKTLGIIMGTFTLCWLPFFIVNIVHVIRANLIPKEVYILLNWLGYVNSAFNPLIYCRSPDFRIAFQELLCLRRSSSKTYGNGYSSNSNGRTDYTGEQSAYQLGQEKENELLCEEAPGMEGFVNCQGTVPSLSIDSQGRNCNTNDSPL

For the compound `CC(C)(Cc1ccc(NC(=O)CBr)cc1)NCC(O)c1ccc(O)c2nc(O)ccc12` (stereo not drawn) [Compound 13], the “Intrinsic Activity, adenylate cyclase” value in the data set on adenylate cyclase [1] is given as 1.2. In the data set with adenylate cyclase [1], the “intrinsic activity (efficacy) in words” value is “higher intrinsic activities than (-)isoproterenol”. Moreover, on adenylate cyclase [1], the EC50 was determined as 8.5 ± 3.5 nM. For the same compound, the IC50 at beta-adrenergic receptor [2] was found to be 5.3 ± 0.8 nM. For the same compound, the “irreversible binding and response at the beta-adrenergic receptor” value in the data set on adenylate cyclase [3] is “irreversibly binds to the beta-adrenergic receptor and produces an irreversible response”; with adenylate cyclase [3] (setting [6]), “appears to bind irreversibly to the receptor and produce irreversible agonist effects”. For the same compound, in the data set with adenylate cyclase [3], the “cAMP production after propranolol added during incubation” value is given as “no change in the rate of cAMP production occurred”. In addition, in the data set with adenylate cyclase [3] (propranolol added with structure 13 at time 0), the “cAMP production with propranolol added at time 0” value is “stimulation of cAMP production was blocked”. Moreover, the “cAMP production, linearity with time” value with adenylate cyclase [3] is given as “linear through 14 min”. The “loss of receptors in words” value in data set [4] (cerebral cortex, 5 mg/kg) is “no significant loss of receptors”; in data set [4] (heart or submaxillary gland, 5 mg/kg vs 2 mg/kg) it was “no further loss of receptors was detected”. The “Specific Ligand Binding” value came out at 114 ± 14 fmol/mg protein in data set [4] (cerebral cortex, 5 mg/kg i.p., control 119 ± 10); 17.1 ± 0.5 fmol/mg protein in data set [4] (heart, 2 mg/kg i.p., control 22.3 ± 1.0); 18.9 ± 0.8 fmol/mg protein in data set [4] (heart, 5 mg/kg i.p., control 22.3 ± 1.0); 318 ± 23 fmol/mg protein in data set [4] (lung, 2 mg/kg i.p., control 658 ± 27); 166 ± 9 fmol/mg protein in data set [4] (lung, 5 mg/kg i.p., control 658 ± 27); 31 ± 4 fmol/mg protein in data set [4] (spleen, 2 mg/kg i.p., control 53.2 ± 1.8). Moreover, the “Specific Ligand Binding” value in data set [4] (spleen, 5 mg/kg i.p., control 53.2 ± 1.8) is listed as 19 ± 1.2 fmol/mg protein; in data set [4] (submaxillary gland, 2 mg/kg i.p., control 98 ± 5.8), 75 ± 3 fmol/mg protein; in data set [4] (submaxillary gland, 5 mg/kg i.p., control 98 ± 5.8), 77 ± 3.7 fmol/mg protein. Also, the “% reduction of receptors from controls” value in data set [4] (heart, 2 mg/kg i.p.) is recorded as 23%; in data set [4] (heart, 5 mg/kg i.p.), 15%; in data set [4] (lung, 2 mg/kg i.p.), 52%; in data set [4] (lung, 5 mg/kg i.p.), 75%; in data set [4] (spleen, 2 mg/kg i.p.) it was 42%; in data set [4] (spleen, 5 mg/kg i.p.) it was 65%. Moreover, the “% reduction of receptors from controls” value was determined as 23% in data set [4] (submaxillary gland, 2 mg/kg i.p.) and 21% in data set [4] (submaxillary gland, 5 mg/kg i.p.). Further, the “blood brain barrier penetration” value in data set [4] (inferred from lack of receptor loss in cerebral cortex) was “cannot cross the blood brain barrier”. Further, the “beta-2-receptor selectivity in vivo” value is “receptor reductions were mainly due to losses of beta-2 receptors” in data set [4] and “high degree of beta-2-receptor selectivity in vivo” in data set [4] (setting [6]). Further, the “Fold increase of ornithine decarboxylase activity over the basal level” value (from here on “Fold increase”) with ornithine decarboxylase (0.1 mg/kg i.p., 3 hours) came out at 4.6 fold. Further, the Ornithine decarboxylase activity in the data set with ornithine decarboxylase (setting [7]) is 8.7 + 0.5 nmol CO2 Formed/g tissue/hr; in the data set on ornithine decarboxylase (setting [8]), 0.4 ± 0.06 nmol CO2 Formed/g tissue/hr. Further, the “receptor concentration after pretreatment and washout” value at beta-adrenergic receptor [5] (20 nM compound 13, four wash cycles, control 576±22, mean ±SD, n=3) was 168±15 fmol/mg of protein. Further, the inhibition at 0.02 µM at beta-adrenergic receptor [5] (0.5 h, 20 nM compound 13, four wash cycles, read-out: decrease in the receptor concentration after pretreatment and washout) stood at 71%. In addition, on beta-adrenergic receptor [5] (compound 13 treated membranes (20 nM), control 13±3, read-out: KD value for (-)-[^125 I]iodocyanopindolol binding to the remaining receptors), the Kd was 0.011 ± 0.002 nM.
For `CC(C)NCC(O)COc1cccc2ccccc12` (stereo not drawn) [propranolol], the “blocking of ornithine decarboxylase induction” value with ornithine decarboxylase (propranolol 5 mg/kg 30 min before (-)isoproterenol or compound 13) is “completely blocked”.
For (-)isoproterenol [reference compound], in the data set on adenylate cyclase [1], the “Intrinsic Activity, adenylate cyclase” value was found to be 1.0 and the EC50 was determined as 226 ± 1.4 nM. Further, on beta-adrenergic receptor [2] (read-out: IC50 (concentration that inhibited CYP binding by 50%), rat reticulocyte membranes, mean ±SE, n = 3-6, 60 min), the IC50 is 327 ± 17 nM. Moreover, in the data set on adenylate cyclase [3], the “cAMP production after propranolol added during incubation” value was “no further cAMP was produced” and the “cAMP production, linearity with time” value is “linear through 14 min”. The “Fold increase” value in the data set with ornithine decarboxylase (0.1 mg/kg i.p., 3 hours) is 6.5 fold. For the same compound, in the data set with ornithine decarboxylase (setting [7]), the Ornithine decarboxylase activity is 11.8 + 1.7 nmol CO2 Formed/g tissue/hr. Also, the “Fold increase” value in the data set with ornithine decarboxylase (0.1 mg/kg i.p., 3 hours, listed as (-)Isoproterenol) was found to be 6.2 fold. In addition, the Ornithine decarboxylase activity in the data set with ornithine decarboxylase (setting [8]) is reported as 0.4 ± 0.09 nmol CO2 Formed/g tissue/hr.
For `CC(C)(Cc1ccc(I)cc1)NCC(O)c1ccc(O)c2[nH]c(=O)ccc12` (stereo not drawn) [Compound 11, 5-[2-[[1-(4-Iodophenyl)-2-methylprop-2-yl]amino]-1-hydroxyethyl]-8-hydroxycarbostyril], in the data set with adenylate cyclase [1], the “Intrinsic Activity, adenylate cyclase” value is on record as 1.3; the “intrinsic activity (efficacy) in words” value was “higher intrinsic activities than (-)isoproterenol”; the EC50 was 5.6 ± 1.4 nM. This compound also gave an IC50 on beta-adrenergic receptor [2] of 7.6 ± 1.3 nM.
The corresponding values for `CC(C)(Cc1ccc(N)cc1)NCC(O)c1ccc(O)c2[nH]c(=O)ccc12` (stereo not drawn) [Compound 12] are 1.0, “equal to the intrinsic activity (efficacy) of (-)isoproterenol”, 14.2 ± 4.7 nM and 22 ± 3 nM.
Consider `CC(C)(C)NCC(O)COc1cccc2c1CC(O)C(O)C2` (stereo not drawn) [nadolol, reference compound], for which, at beta-adrenergic receptor [5] (nadolol 10 μM in preincubation with compound 13), the “prevention of loss of specific binding sites by nadolol” value is “the loss of specific binding sites was completely prevented”.
Turning to `CC[C@H](NC(C)C)[C@H](O)c1ccc(O)c2[nH]c(=O)ccc12` (relative stereo) [procaterol, erythro-5-(1-hydroxy-2-isopropylaminobutyl)-8-hydroxycarbostyril], in the data set on beta-2, the “beta-2 agonist and bronchodilator activity in words” value is “potent beta-2 agonist and a bronchodilator”.
